These results are taken from patent US20040091477A1, “Immunosuppresive compositions” (priority 2003, published 2004).

One assay concerns IL-4. The experiment in a line: IL-4 expression by PMA/IOM-stimulated PBMC from asthma patients, ELISA. Format: cell-based, human. As for the experimental part: (§1) Venous blood was collected in polyethylene tubes containing EDTA between 9 and 10 a.m. PBMC were separated by Ficoll-paque (Pharmacia, Uppsala, Sweden) density gradient centrifugation. Cells were washed and suspended in AIM-V medium (Gibco BRL, Gaithersburg, Md.) at density of 2×10^6 cells/ml. PBMC were stimulated with 20 nM phorbol 12-myristate 13-acetate (PMA) and 1 μM ionomycin (IOM) (ICN Pharmaceuticals, Inc. CA, USA). The cells were harvested 24 hours later and supernatants were frozen at −70° C. until use. […] For BN52021, a range between 1×10^−9 and 1×10^−4 M was used.
(§2) Cytokine expression (IL-4 and IL5) was evaluated in culture supernatants by enzyme-linked immunoabsorption assay (Amersham North America, Illinois, USA). The detection range was 10-400 pg/ml and 7.8-500 pg/ml respectively. Colorimetric changes proportional to supernatant cytokine concentration were measured using a model 2550 EIA reader (Bio-Rad Laboratories, Hercules Calif. USA). All assays were performed in duplicate.
(§3) The data shown Table 2 was obtained using cultures of 2×10^6 human PBMC, which were isolated from venous blood and stimulated 24 hours with media, 20 nM PMA+1.0 μM ionomycin (PMA/I), 1.0 μM cyclosporine A+PMA/IOM, or 1 μM ginkgolide BN52021+PMA. Expression of interleukins 4 and 5 were measured in PBMC culture supernatents by antibody capture ELISA. […]
Background: An ELISA detects its analyte on a solid surface through an enzyme-linked reagent.

A further assay deals with IL-5. The assay is described as follows: IL-5 expression by PMA/IOM-stimulated PBMC from asthma patients, ELISA. Format: cell-based, human. Here is the method: as §1, §2, §3
The test system of the next assay is CD25. The assay is described as follows: CD25 expression by PMA/IOM-stimulated PBMC from asthma patients, flow cytometry. Format: cell-based, human. Here is the method: as §1
(§4) Two-color flow cytometry was conducted using a Coulter Epics Profile II flow cytometer (Coulter Scientific, Hialeah, Fla., USA). Isotypic controls for the monoclonal antibodies (mAb) used to detect antigens of interest were established for each cell preparation. Positive analysis regions for cells expressing specific surface antigens were set against isotypic controls and specific binding of fluorophore-conjugated mAb was analyzed by cytofluorography according to standard methods. Lymphocyte subpopulations were identified by position on forward and side scatter plots and live-gated. Isotype matched antibodies were utilized to control for nonspecific fluorescence. […] Background values for antibodies used in assays were based on fluorescence of non-specific antibodies. […]

The subject of the next assay is CD45RA. The experiment in a line: CD45RA expression by PMA/IOM-stimulated PBMC from asthma patients, flow cytometry. Format: cell-based, human. Here is the method:
as §1, §4
On the technique in general: In flow cytometry, cells or beads pass a laser one at a time.

Another assay deals with CD54. The experiment in a line: CD54 expression by PMA/IOM-stimulated PBMC from asthma patients, flow cytometry. Format: cell-based, human. As for the experimental part: as §1, §4
The test system of a further assay is HLA-DR. The experiment in a line: HLA-DR expression by PMA/IOM-stimulated PBMC from asthma patients, flow cytometry. Format: cell-based, human. Here is the method:
as §1, §4

For assay [1], the system named is lymphocyte activation markers. The assay is described as follows: Dose range of BN52021 on lymphocyte activation markers in PBMC from asthma patients. The conditions noted are these: 1×10^−5 and 1×10^−7 M, 3 of the patients tested. Format: cell-based, human. As for the experimental part:
as §1, §4

Assay [2] addresses platelet activating factor receptor (PAFR) (Homo sapiens, UniProt P25105). The conditions noted are these: cited from earlier work.
The test system of assay [3] is cAMP-specific phosphodiesterase. As to conditions: cited from earlier work.
The mark [4] stands for this setting: 1 μM, PMA/IOM-stimulated cultures.
The mark [5] stands for this setting: PMA + IOM + 1 μM compound, 24 hours, ±SE.

SMILES strings stand for the structures. Where two headings read alike, the source gives them in different places.

platelet activating factor receptor (PAFR), sequence (P25105 whole entry, species assumed): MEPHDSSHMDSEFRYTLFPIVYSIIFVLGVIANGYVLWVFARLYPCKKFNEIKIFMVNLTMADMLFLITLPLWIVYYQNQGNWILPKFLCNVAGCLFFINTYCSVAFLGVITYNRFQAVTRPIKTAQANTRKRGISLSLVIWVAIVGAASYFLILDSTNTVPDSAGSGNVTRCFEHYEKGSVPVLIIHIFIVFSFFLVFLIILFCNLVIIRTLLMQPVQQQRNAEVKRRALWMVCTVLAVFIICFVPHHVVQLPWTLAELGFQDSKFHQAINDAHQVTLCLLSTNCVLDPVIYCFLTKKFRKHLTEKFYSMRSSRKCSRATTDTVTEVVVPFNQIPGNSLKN

In the case of `C[C@@H]1C(=O)O[C@H]2[C@@H](O)[C@@]34[C@H]5C[C@@H](C(C)(C)C)[C@]36[C@@H](OC(=O)[C@@H]6O)O[C@@]4(C(=O)O5)[C@@]12O` [BN52021, Ginkgolide B], the “effect on IL-4 expression (in words)” value in the assay with IL-4 (setting [4]) is recorded as “no statistically significant effect”. The “IL-4 in culture supernatant” value in the assay with IL-4 (setting [5]) was 81.7 ± 28.1 pg/mL. In addition, the “effect on IL-5 expression (in words)” value in the assay on IL-5 (setting [4]) was “no statistically significant effect”. The “IL-5 in culture supernatant” value in the assay with IL-5 (setting [5]) stood at 374 ± 105 pg/mL. Besides, in the assay with CD25 (setting [4]), the “effect on CD25 expression (in words)” value is “unaffected”. Besides, the “% CD25” value in the assay on CD25 (setting [5]) stood at 7.1 ± 2.0%. Moreover, the “effect on CD45RA expression (in words)” value in the assay on CD45RA (setting [4]) is recorded as “decreased significantly”. In addition, the “% CD45RA” value with CD45RA (setting [5]) is 48.8 ± 9.5 %. Further, in the assay with CD54 (setting [4]), the “effect on CD54 expression (in words)” value is “unaffected”. The “% CD54” value in the assay on CD54 (setting [5]) was found to be 27.4 ± 6.9%. Also, the “effect on HLA-DR expression (in words)” value in the assay with HLA-DR (setting [4]) is recorded as “a trend towards the reduction”. Besides, in the assay on HLA-DR (setting [5]), the “% HLA-DR” value is recorded as 21.2 ± 5.3¶ %. In [1], the “change in lymphocyte activation markers (in words)” value was “No change occurred in lymphocyte activation markers”. Further, the “PAFR antagonist activity (in words)” value is “PAFR antagonist activity” in assay [2] and “PAFR antagonist” in assay [2] (listed as Ginkgolide B). The “cAMP phosphodiesterase inhibitory activity (in words)” value in assay [3] is recorded as “does not possess cAMP phophodiesterase activity”.
